From PMC6584016, “A new lipoxygenase from the agaric fungus Agrocybe aegerita: Biochemical characterization and kinetic properties” (PLoS ONE, 2019)

Target: T1, AaeLOX4 (Cyclocybe aegerita, UniProt A0A4D6T4S4)
T1 construct: gene lox4; codon-optimized gene in pET28a, E. coli BL21(DE3) Gold; HisTrap and gel filtration, tag cleavage not mentioned; predicted 79 kDa
T1 sequence (A0A4D6T4S4 1-710): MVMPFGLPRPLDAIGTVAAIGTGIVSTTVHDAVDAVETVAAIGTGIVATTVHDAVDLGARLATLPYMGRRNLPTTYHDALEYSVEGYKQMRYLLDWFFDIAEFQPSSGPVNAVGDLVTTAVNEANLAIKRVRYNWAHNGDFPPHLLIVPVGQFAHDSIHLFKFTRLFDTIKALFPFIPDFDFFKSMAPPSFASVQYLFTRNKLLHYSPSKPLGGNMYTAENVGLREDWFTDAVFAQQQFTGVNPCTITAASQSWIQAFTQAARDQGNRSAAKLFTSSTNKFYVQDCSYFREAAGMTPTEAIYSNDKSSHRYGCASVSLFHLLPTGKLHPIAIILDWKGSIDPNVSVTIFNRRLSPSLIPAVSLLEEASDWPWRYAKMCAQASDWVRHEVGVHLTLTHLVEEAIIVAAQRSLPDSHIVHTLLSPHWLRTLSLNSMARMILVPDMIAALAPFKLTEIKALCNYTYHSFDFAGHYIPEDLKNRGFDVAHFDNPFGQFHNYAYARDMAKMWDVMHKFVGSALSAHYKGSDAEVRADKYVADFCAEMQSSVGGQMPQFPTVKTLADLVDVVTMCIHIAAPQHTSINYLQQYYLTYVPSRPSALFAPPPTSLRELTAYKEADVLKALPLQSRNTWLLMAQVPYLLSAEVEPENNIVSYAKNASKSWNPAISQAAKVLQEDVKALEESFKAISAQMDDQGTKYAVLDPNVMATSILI
Assay: conjugated diene formation at […] nm; Lineweaver-Burk
Type: biochemical
Settings: 50 mM phosphate pH 7.5, 25 °C; substrate dispersed with Tween 20; 0.025-2 mM

Km [µM] | SMILES
295 | CCCCC/C=C\C/C=C\CCCCCCCC(=O)O [linoleic acid]
634 | CC/C=C\C/C=C\C/C=C\CCCCCCCC(=O)O [linolenic acid]
